Values after ≈ are worked out from the molar mass of the structure shown. Like-named read-outs stand apart in the source and are kept apart here.
Key:
Format in all cases: cell-based
[1] = tested on: P. aeruginosa NB52019, wild-type PAO1 strain; assay: MIC by broth microdilution, P. aeruginosa NB52019; details: Pseudomonas aeruginosa, CAMHB, 35° C., 20 hours, read-out: Antibacterial activity (MIC) NB52019
Protocol: (§1) Bacterial isolates were cultivated from −80° C. frozen stocks by overnight passages at 35° C. in ambient air on Mueller-Hinton agar plates (MHA, Becton Dickinson, Franklin Lakes, NB) with the exception of S. pneumoniae which was grown overnight at 35° C. in the presence of 5% CO2 on blood agar plates (tryptic soy agar with 5% sheep blood (Thermo Scientific, Waltham, Mass.) . The following quality control and wild type strains were obtained from the American Type Culture Collection (ATCC; Rockville, Md.) and are coded in the Novartis strain collection as indicated: E. coli ATCC 25922 (NB27001), E. faecalis ATCC 29212 (NB04001), S. aureus ATCC 49951 (NB01006) and S. pneumoniae ATCC […] (NB07001). […] P. aeruginosa NB52019, obtained from Queen's University (Kingston, Ontario, Canada), is the wild-type PAO1 strain.
(§2) Minimal Inhibitory Concentrations (MIC) were determined by the broth microdilution method in accordance with Clinical and Laboratories Institute (CLSI) guidelines. In brief, fresh bacterial overnight cultures were re-suspended in sterile saline, adjusted to a 0.5 McFarland turbidity standard and then diluted to yield a final inoculum of approximately 5×10^5 colony-forming units (CFU)/mL. All bacterial suspensions were prepared in cation adjusted Mueller-Hinton Broth (CAMHB; Becton Dickinson, Franklin Lakes, N.J.;) with the exception of S. pneumoniae which was prepared in CAMHB supplemented with 5% lysed horse blood (Hardy Diagnostics, Santa Maria, Calif.). Two-fold serial dilutions of compounds were prepared in 100% dimethyl sulfoxide (DMSO) at 100-fold the highest final assay concentration; the resulting dilution series of compounds were diluted 1:10 with sterile water. Ten μL of the drug dilution series in 10% DMSO was transferred to microtiter wells and 90 μL of bacterial suspension was inoculated into the wells. All inoculated microdilution trays were incubated in ambient air at 35° C. for 20 hours. Following incubation, assay plates were read in a microtiter plate reader at 600 nm and visually inspected to confirm the MIC endpoint well with the OD value. The lowest concentration of the compound that prevented visible growth was recorded as the MIC (in μg/mL).

[2] = tested on: S. aureus NB01080 fluoroquinolone-resistant clinical isolate; assay: MIC by broth microdilution, S. aureus NB01080; details: Staphylococcus aureus, CAMHB, 35° C., 20 hours, read-out: Antibacterial activity (MIC) NB01080
Protocol: as §1, §2

[3] = tested on: S. pneumoniae ATCC 25922 (NB07001); assay: MIC by broth microdilution, S. pneumoniae NB07001; details: Streptococcus pneumoniae, read-out: Antibacterial activity (MIC) NB07001
Protocol: as §1, §2

[4] = tested on: S. aureus NB01006-AVR005, gyrA (S84L), grlA (580F) and grlB (E471K); assay: microbe, parasite or virus in culture; details: Staphylococcus aureus, 20 h, read-out: Antibacterial activity (MIC) NB01006-AVR005
Protocol: as §1, §2

[5] = tested on: E. coli ATCC 25922 (NB27001); assay: MIC by broth microdilution, E. coli NB27001; details: Escherichia coli, ATCC25922, CAMHB, 35° C., 20 hours, read-out: Antibacterial activity (MIC) NB27001
Protocol: as §1, §2

[6] = tested on: E. faecalis ATCC 29212 (NB04001); assay: MIC by broth microdilution, E. faecalis NB04001; details: Enterococcus faecalis, ATCC29212, CAMHB, 35° C., 20 hours, read-out: Antibacterial activity (MIC) NB04001
Protocol: as §1, §2

[7] = tested on: S. aureus ATCC 49951 (NB01006); assay: MIC by broth microdilution, S. aureus NB01006; details: Staphylococcus aureus, ATCC49951, CAMHB, 35° C., 20 hours, read-out: Antibacterial activity (MIC) NB01006
Protocol: as §1, §2

[8] = ATCC25922, S. pneumoniae, CAMHB supplemented with 5% lysed horse blood, 35° C., 20 hours

| Compound | MIC [1] [µg/mL] | MIC [2] [µg/mL] | MIC ([3]; ATCC25922, 20 h) [µg/mL] | MIC [4] [µg/mL] | MIC [5] [µg/mL] | MIC [6] [µg/mL] | MIC [7] [µg/mL] | MIC [3, 8] [µg/mL] |
| --- | --- | --- | --- | --- | --- | --- | --- | --- |
| C[C@H]1COc2c(N3CCCC4(CCNC4)C3)c(F)cc3cc(C(=O)O)c(=O)n1c23 (mixture of isomers) [Example 1.71, (3S)-9-fluoro-3-methyl-5-oxo-10-(2,7-diazaspiro[4.5]decan-7-yl)-2,3-dihydro-5H-[1,4]oxazino[2,3,4-ij]quinoline-6-carboxylic acid] | > 32 | > 32 | > 32 | > 32 | > 32 | > 32 | > 32 |  |
| C[C@H]1COc2c(N3CC4CCC(N)C4C3)c(F)cc3cc(C(=O)O)c(=O)n1c23 (single isomer, unassigned) [Example 1.28] | > 32 | > 32 | < 1 | > 32 | > 32 | 1 to 32 (≈ 2.58 to 82.6 µM) | 1 to 32 (≈ 2.58 to 82.6 µM) |  |
| C[C@H]1COc2c(N3CCC4CCNCC4C3)c(F)cc3cc(C(=O)O)c(=O)n1c23 (single isomer, unassigned) [Example 1.29] | > 32 | > 32 | > 32 | > 32 | > 32 | > 32 | > 32 |  |
| C[C@H]1COc2c(N3CCC4(CCC4N)CC3)c(F)cc3cc(C(=O)O)c(=O)n1c23 (single isomer, unassigned) [Example 1.32] | > 32 | > 32 | 1 to 32 (≈ 2.49 to 79.7 µM) | > 32 | > 32 | 1 to 32 (≈ 2.49 to 79.7 µM) | 1 to 32 (≈ 2.49 to 79.7 µM) |  |
| C[C@H]1COc2c(N3CCC4(CC3)CC4N)c(F)cc3cc(C(=O)O)c(=O)n1c23 (single isomer, unassigned) [Example 1.33] | > 32 | 1 to 32 (≈ 2.58 to 82.6 µM) | 1 to 32 (≈ 2.58 to 82.6 µM) | > 32 | 1 to 32 (≈ 2.58 to 82.6 µM) | 1 to 32 (≈ 2.58 to 82.6 µM) | 1 to 32 (≈ 2.58 to 82.6 µM) |  |
| C[C@H]1COc2c(N3CC4CNC4C3)c(F)cc3cc(C(=O)O)c(=O)n1c23 (single isomer, unassigned) [Example 1.39] | > 32 | > 32 | > 32 | > 32 | > 32 | > 32 | > 32 |  |
| C[C@H]1COc2c(N3CCC4(CC4N)C3)c(F)cc3cc(C(=O)O)c(=O)n1c23 (single isomer, unassigned) [Example 1.42] | 1 to 32 (≈ 2.68 to 85.7 µM) | 1 to 32 (≈ 2.68 to 85.7 µM) | < 1 | 1 to 32 (≈ 2.68 to 85.7 µM) | < 1 | 1 to 32 (≈ 2.68 to 85.7 µM) | < 1 |  |
| C[C@H]1COc2c(N3CCC(C(C)(C)N)C3)c(F)cc3cc(C(=O)O)c(=O)n1c23 (single isomer, unassigned) [Example 1.43] | > 32 | 1 to 32 (≈ 2.57 to 82.2 µM) | < 1 | 1 to 32 (≈ 2.57 to 82.2 µM) | 1 to 32 (≈ 2.57 to 82.2 µM) | < 1 | < 1 |  |
| CCC(N)C1CCN(c2c(F)cc3cc(C(=O)O)c(=O)n4c3c2OC[C@@H]4C)C1 (single isomer, unassigned) [Example 1.45] | > 32 | < 1 | < 1 | 1 to 32 (≈ 2.57 to 82.2 µM) | 1 to 32 (≈ 2.57 to 82.2 µM) | < 1 | < 1 |  |
| C[C@H]1COc2c(N3CCC(C4(N)CCC4)C3)c(F)cc3cc(C(=O)O)c(=O)n1c23 (single isomer, unassigned) [Example 1.46] | > 32 | < 1 | < 1 | 1 to 32 (≈ 2.49 to 79.7 µM) | 1 to 32 (≈ 2.49 to 79.7 µM) | < 1 | < 1 |  |
| CC(N)C1(F)CCN(c2c(F)cc3cc(C(=O)O)c(=O)n4c3c2OC[C@@H]4C)C1 (single isomer, unassigned) [Example 1.47] | > 32 | 1 to 32 (≈ 2.54 to 81.3 µM) | < 1 | 1 to 32 (≈ 2.54 to 81.3 µM) | 1 to 32 (≈ 2.54 to 81.3 µM) | 1 to 32 (≈ 2.54 to 81.3 µM) | < 1 |  |
| C[C@H]1COc2c(N3CC(CN)C4(CCOCC4)C3)c(F)cc3cc(C(=O)O)c(=O)n1c23 (single isomer, unassigned) [Example 1.48] | > 32 | 1 to 32 (≈ 2.32 to 74.2 µM) | < 1 | 1 to 32 (≈ 2.32 to 74.2 µM) | > 32 | < 1 | < 1 |  |
| C[C@H]1COc2c(N3CC(CN)C4(CCC4)C3)c(F)cc3cc(C(=O)O)c(=O)n1c23 (single isomer, unassigned) [Example 1.49] | 1 to 32 (≈ 2.49 to 79.7 µM) | 1 to 32 (≈ 2.49 to 79.7 µM) | < 1 | 1 to 32 (≈ 2.49 to 79.7 µM) | 1 to 32 (≈ 2.49 to 79.7 µM) | < 1 | < 1 |  |
| C[C@H]1COc2c(N3CC4CCCC4(CN)C3)c(F)cc3cc(C(=O)O)c(=O)n1c23 (single isomer, unassigned) [Example 1.50] | > 32 | 1 to 32 (≈ 2.49 to 79.7 µM) | < 1 | 1 to 32 (≈ 2.49 to 79.7 µM) | > 32 | 1 to 32 (≈ 2.49 to 79.7 µM) | < 1 |  |
| C[C@H]1COc2c(N3CC4CC(N)C4C3)c(F)cc3cc(C(=O)O)c(=O)n1c23 (single isomer, unassigned) [Example 1.62] | > 32 | > 32 | > 32 | > 32 | > 32 | > 32 | 1 to 32 (≈ 2.68 to 85.7 µM) |  |
| C[C@H]1COc2c(N3CC(N)C(CO)C3)c(F)cc3cc(C(=O)O)c(=O)n1c23 (single isomer, unassigned) [Example 1.77] | > 32 | > 32 | 1 to 32 (≈ 2.65 to 84.8 µM) | > 32 | > 32 | > 32 | 1 to 32 (≈ 2.65 to 84.8 µM) |  |
| C[C@H]1COc2c(N3CC(CO)C(N(C)C)C3)c(F)cc3cc(C(=O)O)c(=O)n1c23 (single isomer, unassigned) [Example 1.78] | > 32 | > 32 | 1 to 32 (≈ 2.47 to 78.9 µM) | > 32 | 1 to 32 (≈ 2.47 to 78.9 µM) | > 32 | 1 to 32 (≈ 2.47 to 78.9 µM) |  |
| CC1CCc2c(N3CC[C@@H](C4(N)CC4)C3)c(F)cc3cc(C(=O)O)c(=O)n1c23.O=C(O)C(F)(F)F (single isomer, unassigned) [Example 8] | 1 to 32 | < 1 |  | < 1 | 1 to 32 | < 1 | < 1 | < 1 |
| CC1Cc2c(N3CC[C@@H](C4(N)CC4)C3)c(F)cc3cc(C(=O)O)c(=O)n1c23.Cl (single isomer, unassigned) [Example 9.1] | > 32 | < 1 |  | 1 to 32 | 1 to 32 | < 1 | < 1 | < 1 |
| C[C@H]1COc2c(N3CCC4(CC4N)C3)c(F)c(F)c3cc(C(=O)O)c(=O)n1c23 (single isomer, unassigned) [Example 13.4] | 1 to 32 (≈ 2.56 to 81.8 µM) | 1 to 32 (≈ 2.56 to 81.8 µM) | < 1 | 1 to 32 (≈ 2.56 to 81.8 µM) | < 1 | < 1 | < 1 |  |
| C[C@H]1COc2c(N3CC4CC4(N)C3)c(F)c(F)c3cc(C(=O)O)c(=O)n1c23 (single isomer, unassigned) [Example 13.6] | > 32 | < 1 | < 1 | 1 to 32 (≈ 2.65 to 84.8 µM) | 1 to 32 (≈ 2.65 to 84.8 µM) | < 1 | < 1 |  |
| C[C@H]1COc2c(N3CC4C(N)C4C3)c(F)c(F)c3cc(C(=O)O)c(=O)n1c23 (single isomer, unassigned) [Example 13.7] | 1 to 32 (≈ 2.65 to 84.8 µM) | 1 to 32 (≈ 2.65 to 84.8 µM) | < 1 | 1 to 32 (≈ 2.65 to 84.8 µM) | < 1 | < 1 | < 1 |  |
